# In US7999069B2, “EphB receptor-binding peptides” (Sanford-Burnham Medical Research Institute, priority 2005, dated 2011):
# No end group written: not given here.
# Tests used:
# Eph receptor Fc proteins = assay: Immobilized biotinylated peptides capturing Eph receptor Fc proteins on streptavidin plates; assay type: binding; conditions: A- and B-class Eph receptor Fc proteins
# Protocol: To measure the specificity of peptide binding to Eph receptors, biotinylated peptides were immobilized on streptavidin-coated plates at 10 μM (Pierce Biotechnology, Rockford, Ill.) and incubated for 1 hr with different Eph ectodomain Fc fusion proteins at 2.5 μg/ml in binding buffer. Bound receptor was detected using an anti-Fc antibody coupled to alkaline phosphatase (Promega) with p-nitrophenylphosphate as substrate (Pierce). The background that was subtracted from the measurements was determined by omitting the Eph ectodomain.
# Most of the peptides were synthesized with a biotin tag and immobilized on streptavidin plates to verify their ability to capture the EphB ectodomains used for their isolation.
# Biotinylated peptides were immobilized on streptavidin-coated plates and used to capture Eph receptor Fc proteins. Bound receptor was detected using anti-Fc antibody coupled to alkaline phosphatase and was normalized to the value in the well with highest receptor binding.
# EphB1 = biological target: T1, EphB1 (Homo sapiens, UniProt P54762); assay: Peptide competition of phage binding to EphB1 ectodomain
# T1 construct: panned on the ectodomains of EphB1, EphB2, or EphB4 fused to human Fc
# T1 sequence (P54762 18-540 limits assumed): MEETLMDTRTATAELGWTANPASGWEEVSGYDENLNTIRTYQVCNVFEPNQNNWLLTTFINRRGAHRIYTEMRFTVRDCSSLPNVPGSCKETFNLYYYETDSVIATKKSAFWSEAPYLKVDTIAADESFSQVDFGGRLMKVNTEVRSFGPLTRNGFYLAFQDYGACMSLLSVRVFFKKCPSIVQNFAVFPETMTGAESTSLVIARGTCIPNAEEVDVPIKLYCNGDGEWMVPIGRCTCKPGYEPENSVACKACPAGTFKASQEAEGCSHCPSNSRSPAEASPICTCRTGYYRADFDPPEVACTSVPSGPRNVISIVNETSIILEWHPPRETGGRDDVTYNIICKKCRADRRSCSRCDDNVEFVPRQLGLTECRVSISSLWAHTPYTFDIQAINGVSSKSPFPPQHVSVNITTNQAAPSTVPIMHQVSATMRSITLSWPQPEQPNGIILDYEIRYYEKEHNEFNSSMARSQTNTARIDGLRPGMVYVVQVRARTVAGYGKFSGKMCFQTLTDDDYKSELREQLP
# Protocol: To measure peptide competition of phage binding to EphB receptors, Ni-NTA wells coated with Eph ectodomain Fc were incubated for 30 min at room temperature with various peptide concentrations in binding buffer (100 μl/well). Concentrated stocks of phage clones diluted between 1:500 and 1:10,000 in binding buffer were then added to the wells for a 1 hr at room temperature. Wells were washed and bound phage were detected using the anti-M13 antibody. A biotinylated control peptide with sequence unrelated to the sequences of the Eph-binding peptides ([…], SEQ ID NO: 40) was used as a negative control in some of the experiments, as indicated in the figure legends.
# […]. The SNEW peptide at 25 μM inhibited EphB2 binding of most phage clones isolated by panning on EphB2 (FIGS. 2E and G). The only exceptions were the IHWP, DHRWV and WHWT clones. However, binding of these clones was inhibited by 50 μM SNEW peptide, particularly when the phage concentration was halved. […] Bound phage were detected using anti-M13 phage antibody coupled to HRP and phage binding in the presence of peptide was normalized to phage binding in the absence of peptide. Error bars indicate standard deviation from duplicate measurements, and were calculated taking into account propagation of errors.
# EphB receptors = assay: Peptide pull-down of endogenous EphB receptors from lysates; assay type: binding; conditions: peptide on streptavidin beads; mouse brain or cultured cell lysates
# Protocol: The ability of the peptides to bind in a stable manner, which is important for both targeting and competitive inhibition, was tested in pull-down experiments. For peptide pull-down experiments, cells in 60 cm plates at 70% confluency or adult mouse brain tissue were solubilized in pull-down buffer (50 mM HEPES pH 7.5, 150 mM NaCl, 10% glycerol, 1% Triton-X100, 5 mM KCl and 1 mM EDTA). Three μg of biotinylated peptide were incubated for 45-90 min with 5 μl streptavidin agarose beads (Sigma), unbound peptide was washed away, and the beads were incubated with the cell lysates for 45-90 min. Proteins bound to the beads were separated by SDS-polyacrylamide gel electrophoresis and probed by immunoblotting with EphB1, EphB2, or EphB4 antibodies. The EphB1 antibody (Santa Cruz) was detected with a secondary anti-goat IgG peroxidase-conjugated antibody (BioRad Laboratories). The EphB2 and EphB4 antibodies were affinity-purified polyclonal antibodies to GST fusion proteins containing approximately 100 amino acids from the carboxy-terminal tails of the EphB2 or EphB4 receptors (Noren, N. K. et al. 2004 PNAS USA 101:5583-5588; Holash, J. A. & Pasquale, E. B. 1995 Devel Biol 172:683-693) and were detected with a secondary anti-rabbit IgG peroxidase-conjugated antibody (Amersham Biosciences). […]
sequence,measurement,setting,value
EWLSPNLAPSVR [SEQ ID NO 1],Eph receptor binding selectivity of immobilized biotinylated peptide,Eph receptor Fc proteins,bound selectively to EphB1
same,Inhibition of EphB1 binding of phage clones isolated by panning on EphB1,EphB1; 5 μM peptide,inhibited EphB1 binding of the phage clones isolated by panning on EphB1
same,Inhibition of binding of the corresponding phage clone to EphB1,EphB1; concentration-dependent,efficiently inhibited binding
same,Stable binding of EphB receptors in pull-down,EphB receptors,stably bind EphB receptors
